Test results from publication PMC12340957, “Interactions between Lipopolysaccharide and Peptide Bacteriocin BacSp222 Influence Their Biological Activities” (ACS Infectious Diseases, 2025).
Ends that are not written are not given here. * marks the point of attachment. For = O=C*

Legend:
[1] = literature statement; ref number not given; cited from earlier work
Description: Regarding factors produced by bacteria, the canonical example of molecules interacting with LPS are polymyxins. […] Polymyxins are effective antibacterial drugs that interact with LPS in the outer and inner membranes of the cell wall, ultimately causing a lethal effect. […] Colicins, a family of protein bacteriocins produced by , typically must cross the bacterial outer membrane to display bactericidal activity. Most colicins use porins and high-affinity receptors to cross the outer membrane and kill the target. However, for colicin N, there is no such high-affinity receptor, and this bacteriocin targets LPS instead. The receptor-binding domain of ColN binds to LPS near the membrane surface, and this interaction is required for its bactericidal activity. || Nisin, a peptide lantibiotic produced by , is another example of a bacteriocin that could utilize LPS as a receptor. […] The interaction described above leads to membrane disruption. The level of membrane disruption is related to the origin of the bacteria and the type of LPS as its rough type is more susceptible to nisin.

[2] = test system: TLR4; conditions: literature statement; ref number not given; cited from earlier work
Description: Proteins and peptides capable of recognizing and binding LPS as well as altering its biological activity are present in both higher organisms and bacteria. In higher organisms, these polypeptides are most often involved in the immune response. One of the best-known examples is LPS-binding protein (LBP). It is an acute-phase plasma protein of mammals that forms a complex with LPS, and this complex then binds to CD14 (cluster of differentiation 14). This event initiates a signaling pathway through TLR4/MD-2 and triggers the activation of immune response. , In the absence of TLR4, MD-2 can also i ... || Regarding factors produced by bacteria, the canonical example of molecules interacting with LPS are polymyxins. […] Polymyxins are effective antibacterial drugs that interact with LPS in the outer and inner membranes of the cell wall, ultimately causing a lethal effect.

[3] = target: the molecule itself; experiment: dynamic light scattering; BacSp222 alone at 5, 50 and 500 μg/mL in PBS without Ca2+ and Mg2+, incubated 15 min at 37 °C, measured at 37 °C (Prometheus Panta); performed once

Molecule | interaction with LPS [1] | inhibition of LPS-induced TLR4 activation [2] | binding result [3]
Nisin | forms a molecular complex in model membranes and bacterial outer membrane extracts | – | –
polymyxins [reference compound] | high affinity to LPS | effectively block the biological effects of LPS, including TLR4 activation | –
For-MAGLLRFLLSKGRALYNWAKSHVGKVWEWLKSGATYEQIKEWIENALGWR (molecular mass 5.922 kDa; also called peptide BacSp222) [BacSp222 bacteriocin] | – | – | binds
colicin N: protein bacteriocin whose receptor-binding domain binds to LPS (protein, UniProt P08083 1-387, looked up) Colicin-N: MGSNGADNAHNNAFGGGKNPGIGNTSGAGSNGSASSNRGNSNGWSWSNKPHKNDGFHSDGSYHITFHGDNNSKPKPGGNSGNRGNNGDGASAKVGEITITPDNSKPGRYISSNPEYSLLAKLIDAESIKGTEVYTFHTRKGQYVKVTVPDSNIDKMRVDYVNWKGPKYNNKLVKRFVSQFLLFRKEEKEKNEKEALLKASELVSGMGDKLGEYLGVKYKNVAKEVANDIKNFHGRNIRSYNEAMASLNKVLANPKMKVNKSDKDAIVNAWKQVNAKDMANKIGNLGKAFKVADLAIKVEKIREKSIEGYNTGNWGPLLLEVESWIIGGVVAGVAISLFGAVLSFLPISGLAVTALGVIGIMTISYLSSFIDANRVSNINNIISSVIR | targets LPS | – | –
